# Measurements as given in patent US20260345619A1 (Principia Biopharma Inc., priority 2023, published 2026).
# Experiment: Pre-bronchodilator FEV1 and percent predicted FEV1 by spirometry, change from baseline
# Assay type: in vivo, human
# Settings: 400 mg BID
# Description: Spirometry is a standard test to measure patients' lung function.
# The primary endpoint was the proportion of patients with LOAC. The key secondary endpoint for the study was change in pre-bronchodilator FEV1 from baseline at EOT.
# Reversibility is defined as an increase of the absolute FEV1 after administration of bronchodilator and is measured by spirometry as postbronchodilator increase in FEV1 in percent of the prebronchodilator FEV1. After spirometry for measuring prebronchodilator FEV1, participants were to receive 2-4 puffs of albuterol/salbutamol or levalbuterol/levosalbutamol from a primed MDI. The postbronchodilator spirometry may have been repeated several times within 30 minutes after administration of bronchodilator. Alternatively, and only if it was consistent with usual office practice (to be documented), reversibility may have been performed using inhalation of nebulized albuterol/salbutamol or levalbuterol/levosalbutamol.
# Secondary endpoints included pre-bronchodilator FEV1 change from baseline at EOT, ACQ-5 score change from baseline, and AQLQ score change from baseline. Other secondary and exploratory endpoints are described in Table 2.
# [1] = Week 12, baseline weight ≥90 kg
# [2] = Week 12, smoking history Former
# [3] = EOT (Week 12), all others, mITT
# [4] = Week 2, before LOAC and OCS use, as observed, mITT
# [5] = Week 2, observed/LOCF imputed, mITT
# [6] = Week 2, on-site conventional spirometry as observed, mITT
# [7] = Week 4, before LOAC and OCS use, as observed, mITT
# [8] = Week 4, observed/LOCF imputed, mITT
# [9] = Week 4, on-site conventional spirometry as observed, mITT
# [10] = Week 6, before LOAC and OCS use, as observed, mITT
# [11] = Week 6, observed/LOCF imputed, mITT
# [12] = Week 6, on-site conventional spirometry as observed, mITT
# [13] = Week 8, before LOAC and OCS use, as observed, mITT
# [14] = Week 8, observed/LOCF imputed, mITT
# [15] = Week 8, on-site conventional spirometry as observed, mITT
# [16] = Week 10, before LOAC and OCS use, as observed, mITT
# [17] = Week 10, observed/LOCF imputed, mITT
# [18] = Week 10, on-site conventional spirometry as observed, mITT
# [19] = Week 12 (EOT), MMRM supplementary analysis, mITT
# [20] = Week 12, before LOAC and OCS use, as observed, mITT
compound,measurement,setting,value
"CC(C)(C=C(C#N)C(=O)N1CCC[C@@H](n2nc(-c3ccc(Oc4ccccc4)cc3F)c3c(N)ncnc32)C1)N1CCN(C2COC2)CC1 (mixture of isomers) [rilzabrutinib, (R)-2-[3-[4-amino-3-(2-fluoro-4-phenoxy-phenyl)pyrazolo[3,4-d]pyrimidin-1-yl]piperidine-1-carbonyl]-4-methyl-4-[4-(oxetan-3-yl)piperazin-1-yl]pent-2-enenitrile]","Pre-bronchodilator FEV1 change from baseline, LS Mean",[1],-0.25 L
same,"Pre-bronchodilator FEV1 change from baseline, LS Mean Diff vs. placebo",[1],-0.37 L
same,"Pre-bronchodilator FEV1 change from baseline, Mean",[1],-0.17 L
same,"Pre-bronchodilator FEV1 change from baseline, LS Mean","Week 12, female",0.00 L
same,"Pre-bronchodilator FEV1 change from baseline, LS Mean Diff vs. placebo","Week 12, female",0.04 L
same,"Pre-bronchodilator FEV1 change from baseline, Mean","Week 12, female",-0.01 L
same,"Pre-bronchodilator FEV1 change from baseline, LS Mean","Week 12, male",-0.23 L
same,"Pre-bronchodilator FEV1 change from baseline, LS Mean Diff vs. placebo","Week 12, male",-0.16 L
same,"Pre-bronchodilator FEV1 change from baseline, Mean","Week 12, male",-0.08 L
same,"Pre-bronchodilator FEV1 change from baseline, LS Mean",[2],-0.57 L
same,"Pre-bronchodilator FEV1 change from baseline, LS Mean Diff vs. placebo",[2],-0.21 L
same,"Pre-bronchodilator FEV1 change from baseline, Mean",[2],-0.36 L
same,"Pre-bronchodilator FEV1 change from baseline, LS Mean","Week 12, smoking history Never",-0.05 L
same,"Pre-bronchodilator FEV1 change from baseline, LS Mean Diff vs. placebo","Week 12, smoking history Never",0.03 L
same,"Pre-bronchodilator FEV1 change from baseline, Mean","Week 12, smoking history Never",0.02 L
same,"Difference vs. placebo, LS mean change in pre-bronchodilator FEV1 (L) at Week 12","95% CI −0.17, 0.19, p=0.9466",0.01 L
same,"Change from baseline in pre-bronchodilator FEV1, LS Mean (SE)",[3],-0.05 L
same,"Change from baseline in pre-bronchodilator FEV1, LS Mean Diff vs. placebo (95% CI)",[3],0.03 L
same,"Change from baseline in pre-bronchodilator FEV1, Mean (SD)","EOT (Week 12), all others, mITT, n=22",-0.02 L
same,"Change from baseline in pre-bronchodilator FEV1, Mean (SD)","EOT (Week 12), low EOS (<0.15) and low FeNO (<25), mITT, n=3",-0.17 L
same,LS Mean change from baseline in pre-bronchodilator FEV1 (L) at Week 12,"N=32, mITT",−0.07 (0.08) L
same,"Pre-bronchodilator FEV1, mean",[4],2.20 L
same,"Pre-bronchodilator FEV1, median",[4],2.08 L
same,"Pre-bronchodilator FEV1 change from baseline, Mean",[4],0.08 L
same,"Pre-bronchodilator FEV1 change from baseline, median",[4],0.04 L
same,"Pre-bronchodilator FEV1 percent change from baseline, mean",[4],4.47%
same,"Pre-bronchodilator FEV1 percent change from baseline, median",[4],2.02%
same,"Pre-bronchodilator FEV1, mean",[5],2.20 L
same,"Pre-bronchodilator FEV1, median",[5],2.08 L
same,"Pre-bronchodilator FEV1 change from baseline, LS Mean",[5],0.06 L
same,"Pre-bronchodilator FEV1 change from baseline, LS Mean Diff vs. placebo",[5],0.00 L
same,"Pre-bronchodilator FEV1 change from baseline, Mean",[5],0.08 L
same,"Pre-bronchodilator FEV1 change from baseline, median",[5],0.04 L
same,"Pre-bronchodilator FEV1, mean",[6],2.20 L
same,"Pre-bronchodilator FEV1, median",[6],2.08 L
same,"Pre-bronchodilator FEV1 change from baseline, Mean",[6],0.08 L
same,"Pre-bronchodilator FEV1 change from baseline, median",[6],0.04 L
same,"Pre-bronchodilator FEV1 percent change from baseline, mean",[6],4.47%
same,"Pre-bronchodilator FEV1 percent change from baseline, median",[6],2.02%
same,"Pre-bronchodilator FEV1, mean",[7],2.05 L
same,"Pre-bronchodilator FEV1, median",[7],1.96 L
same,"Pre-bronchodilator FEV1 change from baseline, Mean",[7],0.07 L
same,"Pre-bronchodilator FEV1 change from baseline, median",[7],0.02 L
same,"Pre-bronchodilator FEV1 percent change from baseline, mean",[7],3.72%
same,"Pre-bronchodilator FEV1 percent change from baseline, median",[7],0.55%
same,"Pre-bronchodilator FEV1, mean",[8],2.07 L
same,"Pre-bronchodilator FEV1, median",[8],1.96 L
same,"Pre-bronchodilator FEV1 change from baseline, LS Mean",[8],0.08 L
same,"Pre-bronchodilator FEV1 change from baseline, LS Mean Diff vs. placebo",[8],-0.01 L
same,"Pre-bronchodilator FEV1 change from baseline, Mean",[8],0.07 L
same,"Pre-bronchodilator FEV1 change from baseline, median",[8],0.02 L
same,"Pre-bronchodilator FEV1, mean",[9],2.05 L
same,"Pre-bronchodilator FEV1, median",[9],1.96 L
same,"Pre-bronchodilator FEV1 change from baseline, Mean",[9],0.07 L
same,"Pre-bronchodilator FEV1 change from baseline, median",[9],0.02 L
same,"Pre-bronchodilator FEV1 percent change from baseline, mean",[9],3.72%
same,"Pre-bronchodilator FEV1 percent change from baseline, median",[9],0.55%
same,"Pre-bronchodilator FEV1, mean",[10],2.24 L
same,"Pre-bronchodilator FEV1, median",[10],2.01 L
same,"Pre-bronchodilator FEV1 change from baseline, Mean",[10],0.09 L
same,"Pre-bronchodilator FEV1 change from baseline, median",[10],0.07 L
same,"Pre-bronchodilator FEV1 percent change from baseline, mean",[10],3.99%
same,"Pre-bronchodilator FEV1 percent change from baseline, median",[10],3.66%
same,"Pre-bronchodilator FEV1, mean",[11],2.24 L
same,"Pre-bronchodilator FEV1, median",[11],2.01 L
same,"Pre-bronchodilator FEV1 change from baseline, LS Mean",[11],-0.03 L
same,"Pre-bronchodilator FEV1 change from baseline, LS Mean Diff vs. placebo",[11],-0.03 L
same,"Pre-bronchodilator FEV1 change from baseline, Mean",[11],0.09 L
same,"Pre-bronchodilator FEV1 change from baseline, median",[11],0.07 L
same,"Pre-bronchodilator FEV1, mean",[12],2.24 L
same,"Pre-bronchodilator FEV1, median",[12],2.06 L
same,"Pre-bronchodilator FEV1 change from baseline, Mean",[12],0.10 L
same,"Pre-bronchodilator FEV1 change from baseline, median",[12],0.07 L
same,"Pre-bronchodilator FEV1 percent change from baseline, mean",[12],4.61%
same,"Pre-bronchodilator FEV1 percent change from baseline, median",[12],5.14%
same,"Pre-bronchodilator FEV1, mean",[13],2.10 L
same,"Pre-bronchodilator FEV1, median",[13],1.83 L
same,"Pre-bronchodilator FEV1 change from baseline, Mean",[13],0.08 L
same,"Pre-bronchodilator FEV1 change from baseline, median",[13],0.11 L
same,"Pre-bronchodilator FEV1 percent change from baseline, mean",[13],3.28%
same,"Pre-bronchodilator FEV1 percent change from baseline, median",[13],3.73%
same,"Pre-bronchodilator FEV1, mean",[14],2.09 L
same,"Pre-bronchodilator FEV1, median",[14],1.83 L
same,"Pre-bronchodilator FEV1 change from baseline, LS Mean",[14],-0.00 L
same,"Pre-bronchodilator FEV1 change from baseline, LS Mean Diff vs. placebo",[14],0.02 L
same,"Pre-bronchodilator FEV1 change from baseline, Mean",[14],0.04 L
same,"Pre-bronchodilator FEV1 change from baseline, median",[14],0.05 L
same,"Pre-bronchodilator FEV1, mean",[15],2.08 L
same,"Pre-bronchodilator FEV1, median",[15],1.86 L
same,"Pre-bronchodilator FEV1 change from baseline, Mean",[15],0.08 L
same,"Pre-bronchodilator FEV1 change from baseline, median",[15],0.09 L
same,"Pre-bronchodilator FEV1 percent change from baseline, mean",[15],3.30%
same,"Pre-bronchodilator FEV1 percent change from baseline, median",[15],3.64%
same,"Pre-bronchodilator FEV1, mean",[16],2.29 L
same,"Pre-bronchodilator FEV1, median",[16],1.93 L
same,"Pre-bronchodilator FEV1 change from baseline, Mean",[16],0.21 L
same,"Pre-bronchodilator FEV1 change from baseline, median",[16],0.12 L
same,"Pre-bronchodilator FEV1 percent change from baseline, mean",[16],10.71%
same,"Pre-bronchodilator FEV1 percent change from baseline, median",[16],4.52%
same,"Pre-bronchodilator FEV1, mean",[17],2.24 L
same,"Pre-bronchodilator FEV1, median",[17],1.93 L
same,"Pre-bronchodilator FEV1 change from baseline, LS Mean",[17],0.02 L
same,"Pre-bronchodilator FEV1 change from baseline, LS Mean Diff vs. placebo",[17],0.06 L
same,"Pre-bronchodilator FEV1 change from baseline, Mean",[17],0.13 L
same,"Pre-bronchodilator FEV1 change from baseline, median",[17],0.09 L
same,"Pre-bronchodilator FEV1, mean",[18],2.29 L
same,"Pre-bronchodilator FEV1, median",[18],1.93 L
same,"Pre-bronchodilator FEV1 change from baseline, Mean",[18],0.21 L
same,"Pre-bronchodilator FEV1 change from baseline, median",[18],0.12 L
same,"Pre-bronchodilator FEV1 percent change from baseline, mean",[18],10.71%
same,"Pre-bronchodilator FEV1 percent change from baseline, median",[18],4.52%
same,"Change from baseline in pre-bronchodilator FEV1, Mean",[19],-0.02 L
same,"Change from baseline in pre-bronchodilator FEV1, Median",[19],-0.04 L
same,"Pre-bronchodilator FEV1, Mean",[19],2.01 L
same,"Pre-bronchodilator FEV1, Median",[19],1.88 L
same,"Change from baseline in pre-bronchodilator FEV1, LS Mean","Week 12 (EOT), MMRM, mITT",-0.01 L
same,"Change from baseline in pre-bronchodilator FEV1, LS Mean diff vs. placebo","Week 12 (EOT), MMRM, mITT",0.00 L
same,"Pre-bronchodilator FEV1, mean",[20],2.01 L
same,"Pre-bronchodilator FEV1, median",[20],1.88 L
same,"Pre-bronchodilator FEV1 change from baseline, Mean",[20],-0.02 L
